Measurements published in patent US8841453B2, “Hybrid cholinesterase inhibitors” (priority 2011, dated 2014).

How the values were obtained:
[1] = target: AChE from the erythrocytes (Homo sapiens (Human), UniProt P22303); assay: Ellman's method, acetylcholinesterase inhibition; format: biochemical; conditions: human erythrocyte AChE, phosphate buffer pH 8.0 as reference
Method: (§1) The biological activity of the compounds of general formula (I) towards the cholinesterase inhibition was evaluated using Ellman's method (Ellman, G. L.; Courtney, K. D.; Anders, B.; Featherstone, R. M. Biochem. Pharmacol. 1961, 7, 88-95).
(§2) The inhibitor causes the enzyme activity drop which is dependent on the inhibitor concentration. […] The amount of the hydrolyzed ASCh/BSCh is measured indirectly, by quantification of the product of its reaction with DTNB (5,5′-dithio-bis-2-nitrobenzoic acid). Ellman's method relies therefore on the spectrophotometric quantification of product of the reaction between acylthiocholine and DTNB. IC50 value corresponds to the inhibitor concentration which causes the 50% decrease of the enzyme activity.
(§3) The enzymes are derived from human blood: AChE from the erythrocytes and BChE from the plasma. The phosphate buffer of pH 8.0 is used as the reference compound (lack of inhibition; enzyme activity—100%).

BChE from the plasma = BChE from the plasma (Homo sapiens (Human), UniProt P06276); assay: Ellman's method, butyrylcholinesterase inhibition; format: biochemical; conditions: for IC50: human plasma BChE, Ellman's method, phosphate buffer pH 8.0 as reference; for Selectivity IC50(AChE)/IC50(BChE): ratio of IC50 for AChE to IC50 for BChE
Method: as §1, §2, §3

BChE from the plasma, sequence (P06276 29-602): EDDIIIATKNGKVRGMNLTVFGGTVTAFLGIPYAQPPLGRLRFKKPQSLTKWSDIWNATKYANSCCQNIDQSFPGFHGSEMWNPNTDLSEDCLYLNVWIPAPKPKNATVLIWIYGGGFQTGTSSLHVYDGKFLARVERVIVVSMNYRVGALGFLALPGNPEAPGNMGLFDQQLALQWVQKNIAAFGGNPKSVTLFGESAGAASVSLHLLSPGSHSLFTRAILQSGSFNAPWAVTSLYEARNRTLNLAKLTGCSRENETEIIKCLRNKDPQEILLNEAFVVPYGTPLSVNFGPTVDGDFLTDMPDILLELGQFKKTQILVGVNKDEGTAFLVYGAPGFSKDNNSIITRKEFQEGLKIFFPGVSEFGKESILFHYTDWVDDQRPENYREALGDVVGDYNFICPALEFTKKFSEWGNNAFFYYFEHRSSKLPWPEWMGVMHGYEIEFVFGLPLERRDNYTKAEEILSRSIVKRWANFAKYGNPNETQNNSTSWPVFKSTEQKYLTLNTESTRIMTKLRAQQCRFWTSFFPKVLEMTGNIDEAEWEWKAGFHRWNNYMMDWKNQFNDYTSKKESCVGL
AChE from the erythrocytes, sequence (P22303 32-574 with tags or gaps limits assumed): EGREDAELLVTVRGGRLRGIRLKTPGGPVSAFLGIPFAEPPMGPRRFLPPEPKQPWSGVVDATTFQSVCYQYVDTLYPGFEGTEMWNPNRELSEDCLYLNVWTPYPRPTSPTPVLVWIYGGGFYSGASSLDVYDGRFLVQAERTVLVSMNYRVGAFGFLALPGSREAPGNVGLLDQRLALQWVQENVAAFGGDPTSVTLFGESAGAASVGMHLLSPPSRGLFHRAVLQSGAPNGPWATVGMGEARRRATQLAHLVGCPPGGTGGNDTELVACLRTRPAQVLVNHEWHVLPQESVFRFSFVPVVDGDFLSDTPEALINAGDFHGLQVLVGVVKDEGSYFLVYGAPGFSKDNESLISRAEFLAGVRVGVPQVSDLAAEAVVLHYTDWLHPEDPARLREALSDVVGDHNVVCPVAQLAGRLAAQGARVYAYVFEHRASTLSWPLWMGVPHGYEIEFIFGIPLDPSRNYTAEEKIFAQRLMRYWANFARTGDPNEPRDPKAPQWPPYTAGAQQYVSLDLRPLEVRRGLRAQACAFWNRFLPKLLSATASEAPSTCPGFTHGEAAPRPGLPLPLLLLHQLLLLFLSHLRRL

SMILES	IC50 [1] [nM]	IC50 (BChE from the plasma) [nM]	Selectivity IC50(AChE)/IC50(BChE) (BChE from the plasma)
CC(=O)O[C@@]12CCN(C(C)=O)[C@@H]1N(C(C)=O)c1ccc(OC(=O)NCCCCCCNc3c4c(nc5ccccc35)CCCC4)cc12 (stereo in doubt) [Example 7, 1,8-diacetyl-5-({[6-(1,2,3,4-tetrahydroacridin-9-ylamino)hexyl]carbamoyl}oxy)-2,3,8,8a-tetrahydropyrrolo[2,3-b]indol-3a(1H)-yl acetate]	36.8 ± 2.87	3.15 ± 0.83	11.7
CC(=O)NCCc1c[nH]c2ccc(OC(=O)NCCCCCCCNc3c4c(nc5ccccc35)CCCC4)cc12 [Example 1, 3-[2-(acetylamino)ethyl]-1H-indol-5-yl[7-(1,2,3,4-tetrahydroacridin-9-ylamino)heptyl]carbamate]	33.8 ± 2.74	0.25 ± 0.02	135.1
CC(=O)NCCc1c[nH]c2ccc(OC(=O)NCCCCCCNc3c4c(nc5ccccc35)CCCC4)cc12 [Example 3, 3-[2-(acetylamino)ethyl]-1H-indol-5-yl[6-(1,2,3,4-tetrahydroacridin-9-ylamino)hexyl]carbamate]	178 ± 16.3	2.04 ± 0.22	87.4
CC(=O)NCCc1c[nH]c2ccc(OC(=O)NCCCCCCCNc3c4c(nc5cc(Cl)ccc35)CCCC4)cc12 [Example 4, 3-[2-(acetylamino)ethyl]-1H-indol-5-yl{7-[(6-chloro-1,2,3,4-tetrahydroacridin-9-yl)amino]heptyl}carbamate]	–	–	20.3
CC(=O)NCCc1c[nH]c2ccc(OC(=O)NCCNc3c4c(nc5cc(Cl)ccc35)CCCC4)cc12 [Example 5, 3-[2-(acetylamino)ethyl]-1H-indol-5-yl{2-[(6-chloro-1,2,3,4-tetrahydroacridin-9-yl)amino]ethyl}carbamate]	–	–	0.6
CC(=O)NCCc1c[nH]c2ccc(OC(=O)NCCCNc3c4c(nc5ccccc35)CCCC4)cc12 [Example 8, 3-[2-(acetylamino)ethyl]-1H-indol-5-yl[3-(1,2,3,4-tetrahydroacridin-9-ylamino)propyl]carbamate]	270 ± 19.4	58.2 ± 9.62	4.6
CC(=O)NCCc1c[nH]c2ccc(OC(=O)NCCCCNc3c4c(nc5ccccc35)CCCC4)cc12 [Example 9, 3-[2-(acetylamino)ethyl]-1H-indol-5-yl[4-(1,2,3,4-tetrahydroacridin-9-ylamino)butyl]carbamate]	378 ± 42.4	15.5 ± 2.84	24.4
CC(=O)NCCc1c[nH]c2ccc(OC(=O)NCCCCCNc3c4c(nc5ccccc35)CCCC4)cc12 [Example 10, 3-[2-(acetylamino)ethyl]-1H-indol-5-yl[5-(1,2,3,4-tetrahydroacridin-9-ylamino)pentyl]carbamate]	186 ± 11.2	2.07 ± 0.5	90.1
CC(=O)NCCc1c[nH]c2ccc(OC(=O)NCCCCCCCCNc3c4c(nc5ccccc35)CCCC4)cc12 [Example 11, 3-[2-(acetylamino)ethyl]-1H-indol-5-yl[8-(1,2,3,4-tetrahydroacridin-9-ylamino)octyl]carbamate]	4.61 ± 0.32	0.25 ± 0.03	18.4
CC(=O)NCCc1c[nH]c2ccc(OC(=O)NCCCCCCCNc3c4c(nc5ccc(Cl)cc35)CCCC4)cc12 [Example 12, 3-[2-(acetylamino)ethyl]-1H-indol-5-yl{7-[(7-chloro-1,2,3,4-tetrahydroacridin-9-yl)amino]heptyl}carbamate]	–	–	45.3
CC(=O)NCCc1c[nH]c2ccc(OC(=O)NCCNc3c4c(nc5ccc(Cl)cc35)CCCC4)cc12 [Example 13, 3-[2-(acetylamino)ethyl]-1H-indol-5-yl{2-[(7-chloro-1,2,3,4-tetrahydroacridin-9-yl)amino]ethyl}carbamate]	–	–	400.1
CC(=O)NCCc1c[nH]c2ccc(OC(=O)NCCCCCCCCCCNc3c4c(nc5ccccc35)CCCC4)cc12 [Example 14, 3-[2-(acetylamino)ethyl]-1H-indol-5-yl[10-(1,2,3,4-tetrahydroacridin-9-ylamino)decyl]carbamate]	1.18 ± 0.12	0.28 ± 0.04	4.2
CC(=O)NCCc1c[nH]c2ccc(OC(=O)NCCCCCCCCCCCCNc3c4c(nc5ccccc35)CCCC4)cc12 [Example 15, 3-[2-(acetylamino)ethyl]-1H-indol-5-yl[12-(1,2,3,4-tetrahydroacridin-9-ylamino)dodecyl]carbamate]	3.8 ± 0.16	0.24 ± 0.08	15.8
CC(=O)NCCc1c[nH]c2ccc(OC(=O)NCCCCCCCCCCNc3c4c(nc5ccc(Cl)cc35)CCCC4)cc12 [Example 16, 3-[2-(acetylamino)ethyl]-1H-indol-5-yl{10-[(7-chloro-1,2,3,4-tetrahydroacridin-9-yl)amino]decyl}carbamate]	1.43 ± 0.02	1.64 ± 0.14	0.9
CC(=O)NCCc1c[nH]c2ccc(OC(=O)NCCCCCCCCCCCCNc3c4c(nc5ccc(Cl)cc35)CCCC4)cc12 [Example 17, 3-[2-(acetylamino)ethyl]-1H-indol-5-yl{12-[(7-chloro-1,2,3,4-tetrahydroacridin-9-yl)amino]dodecyl}carbamate]	7 ± 0.72	0.78 ± 0.16	9
CC(=O)NCCc1c[nH]c2ccc(OC(=O)NCCCCCCCCCCNc3c4c(nc5cc(Cl)ccc35)CCCC4)cc12 [Example 18, 3-[2-(acetylamino)ethyl]-1H-indol-5-yl{10-[(6-chloro-1,2,3,4-tetrahydroacridin-9-yl)amino]decyl}carbamate]	–	–	6.7
CC(=O)NCCc1c[nH]c2ccc(OC(=O)NCCCCCCCCCCCCNc3c4c(nc5cc(Cl)ccc35)CCCC4)cc12 [Example 19, 3-[2-(acetylamino)ethyl]-1H-indol-5-yl{12-[(6-chloro-1,2,3,4-tetrahydroacridin-9-yl)amino]dodecyl}carbamate]	–	–	19.5
